Experimental data taken from US20230046904A1, “COMBINATION OF SMALL MOLECULE INHIBITOR OF THE PD-1/PD-L1 INTERACTION AND ANTI-PD-1 ANTIBODY FOR TREATING CANCER” (GUANGZHOU MAXINOVEL PHARMACEUTICALS CO., LTD., priority 2019, published 2023).

Legend:
[1] = tested on: 4T1 tumor cells; assay: Anti-tumor efficacy of Compound 1 and Opdivo in the 4T1 humanized mouse model; format: in vivo; conditions: for TGI at day 13: p<0.0001
Description: (§1) 4T1 tumor cells (ATCC, CRL-2539™) are maintained in vitro as a monolayer culture in RPMI 1640 medium supplemented with 10% heat inactivated fetal bovine serum at 37° C. in an atmosphere of 5% CO2 in air. The tumor cells are routinely subcultured three times weekly by trypsin-EDTA treatment. Each mouse is inoculated subcutaneously at the fourth mammary pad with 1×10^5 in 0.05 mL base medium for tumor development.
Compound 1 plus Opdivo (nivolumab): 40 BALB/c mice are inoculated subcutaneously at the fourth mammary pad with 4T1 cells for tumor development. On the six days of post inoculation, the mice are assigned into 4 groups using stratified randomization with 10 mice in each group based upon their tumor volume. The treatments are started from the day of randomization, and the groups receive the following treatments:
Group 1: Vehicle control; Group 2: Opdivio, 10 mg/kg, i.p., BIW; Group 3: Compound 1, 60 mg/kg, p.o., BID and Group 4: Compound 1, 60 mg/kg, p.o., BID+Opdivio, 10 mg/kg, i.p., BIW respectively.
(§2) The tumor sizes are measured three times per week during the treatment.
The tumor growth inhibition effect of the combination of Compound 1 and Opdivo is examined. The tumor inhibition rate is calculated as:
TGI (%)=(1−(the volume of the tumor on the day of administration−the volume of the tumor on the first day of administration (treatment group))/(the volume of the tumor on the day of administration−the volume of the tumor on the first day (vehicle group)))×100%.

[2] = tested on: B16F10 tumor cells (melanoma); assay: Anti-tumor efficacy in the B16F10 model in C57BL/6 mice; format: in vivo; conditions: PO, BID
Description: Materials required for the experiment: Antibody: mouse PD-1 antibody, Product specifications: 7.09 mg/mL (50 mg/mL), Lot No.: 695318A1 purchased from BioXcell, storage at 4° C. Experimental animals 60 C57BL/6 mice, female, 6-8 weeks old, 17-21 g, purchased from Shanghai Lingchang Biotechnology Co. Ltd. Formulation materials: castor oil (Cremophor RH40), CAS No.: 61788-85-0, Lot No.: 29761847G0, purchased from Shanghai Xietai Chemical Co. Ltd.; β-cyclodextrin (SBE-β-CD), CAS No.: 128446-35-5, Lot No.: 20180110, purchased from Shanghai Shaoyuan Chemical Co. Ltd.; DMEM culture medium, Art. No.: 11995-065, Lot No.: 2025378, purchased from Gibco Co. Ltd.; PBS, Art. […]
Cell preparation and implantation: The B16-F10 tumor cells (ATCC CRL-6475™) are maintained in vitro as a monolayer culture in DMEM medium supplemented with 10% heat inactivated fetal bovine serum at 37° C. in an atmosphere of 5% CO2 in air. […] The cells growing to a confluency around 70%-80% are harvested and counted for tumor inoculation. […]
Procedure: The mice in the vehicle group are weighed and recorded in the electronic balance according to their numbers. […]
The mice in the antibody (10 mg/kg) group are weighed and recorded in the electronic balance according to their numbers. […]
The mice in the compound (30 mg/kg) group are weighed and recorded in the electronic balance according to their numbers. […]

[3] = tested on: 4T1 tumor cells; assay: Anti-tumor efficacy of Compound 1 and Keytruda in the 4T1 humanized mouse model; format: in vivo
Description: as §1
Compound 1 plus Keytruda (pembrolizumab): 40 BALB/c mice are inoculated subcutaneously at the fourth mammary pad with 4T1 cells for tumor development. On the six days of post inoculation, the mice were assigned into 4 groups using stratified randomization with 10 mice in each group based upon their tumor volume. The treatments were started from the day of randomization, and the groups receive the following treatments:
Group 1: Vehicle control; Group 2: Keytruda, 10 mg/kg, i.p., BIW; Group 3: Compound 1, 60 mg/kg, p.o., BID, and Group 4: Compound 1, 60 mg/kg, p.o., BID+Keytruda, 10 mg/kg, i.p., BIW respectively.
as §2
The tumor growth inhibition effect of the combination of Compound 1 and Keytruda is examined. The tumor inhibition rate is calculated as:
TGI (%)=(1−(the volume of the tumor on the day of administration−the volume of the tumor on the first day of administration (treatment group))/(the volume of the tumor on the day of administration−the volume of the tumor on the first day (vehicle group))×100%.

[4] = tested on: PD-L1 suppressed human T cells; assay: Activation of T-Cell Suppressed by PD-L1 (co-culture with PD-L1 transfected Hep3B cells, IFN-γ readout); format: cell-based; conditions: dose-dependent; Keytruda as positive control
Source text: To measure the cellular activity of the compound, a protocol of Activation of T-Cell Suppressed by PD-L1 is used. In this protocol, human Hep3B cells are stably transfected with human PD-L1. The human T cells containing PD-1 are inactivated by co-culturing with these PD-L1 transfected cells. Then anti-PD-1 antibody Keytruda® (pembrolizumab) is selected as the reference to profile the compound for its activation of PD-L1 suppressed human T-cells. […] Keytruda is used as a positive control.

Cc1c(/C=C/c2cc(CN[C@@](C)(CO)C(=O)O)ccc2C(F)(F)F)cccc1-c1ccccc1 [Compound 1]
TGI at day 13 ([1]; 60 mg/kg, PO, BID): 21.70%
growth of subcutaneous transplanted melanoma cell line in mice ([2]; C57BL/6 mice): significantly inhibits the growth
tolerability in C57BL/6 mice ([2]; up to 120 mg/kg): well tolerated in C57BL/6 mice without obvious adverse reactions
TGI at day 10 ([3]; 60 mg/kg, PO, BID, p<0.0001): 22.36%
activation of PD-L1 suppressed human T cells, indicated by increase of cytokine IFN-γ [4]: effectively restores the activation of the PD-L1 suppressed human T cells

nivolumab [Opdivo]
TGI at day 13 ([1]; 10 mg/kg, IP, BIW): 21.88%
time after dosing within which mice are found dead ([1]; after the 5th dose of Opdivo at day 14, 10 mg/kg i.p. BIW, mice): ≤ 1 h

pembrolizumab [Keytruda]
TGI at day 10 ([3]; 10 mg/kg, IP, BIW, p>0.5): 9.12%
time after dosing within which mice are found dead ([3]; after the 4th dose of Keytruda at day 10, 10 mg/kg i.p. BIW, mice): ≤ 1 h
